{"source": "patent US20190070174A1", "about": "“METHODS OF TREATING NEURODEGENERATIVE DISEASES” (priority 2016, published 2019)", "key": {"[1]": {"test_system": "ATXN3Q81.Luc fusion protein", "assay": "Confirmation dose-response, ATXN3 levels by immunoblotting", "format": "cell-based, human", "conditions": "293.ATXN3Q81Luc cells", "excerpt": "Full-length ATXN3 (Accession number ABS29269) carrying either a normal or an expanded polyQ tract (Q26 or Q81) was subcloned in the vector pcDNA3.1 FLAG.firefly Luciferase. The mammalian expression plasmids pcDNA.FLAG.ATXN3Q26.Luc and pcDNA.FLAG.ATXN3Q81.Luc were confirmed by sequencing and shown to express N-terminal FLAG-tagged ATXN3Q26 or ATXN3Q81 fused with firefly Luciferase (Luc), respectively. These neomycin-resistant plasmids were transfected into HEK293 cells using Lipofectamine LTX (Invitrogen) during four hours, after which medium was replaced by growth medium (DMEM/10% fetal bovine serum (FBS)/1% penicillin/streptomycin (PS)). […] After one month of passage in selection medium, stably transfected clones for each cell line (293.ATXN3Q26Luc and 293.ATXN3Q81Luc) were pooled and frozen in liquid nitrogen. Stably transfected cell lines were maintained in selection medium except during treatment with specific compounds that were diluted in growth medium.\nProtein lysates from cell cultures, mouse brain slices or mouse brains were obtained by lysis in RIPA buffer containing protease inhibitors (Complete, Roche Diagnostics), followed by sonication and centrifugation. The supernatants (soluble protein fractions) were collected, total protein concentration was determined using the BCA method (Pierce) and then stored at −80° C. Total proteins (50 μg from cell and slice cultures or 75 μg from brain regions of mice) were resolved in 10% SDS-PAGE gels, and corresponding PVDF membranes were incubated overnight at 4° C. with primary antibodies: mouse anti-ATXN3 (1H9) (1:2000; MAB5360, Millipore), goat anti-Luciferase (1:500; G7451, Promega), mouse anti-FLAG (M5) (1:500; IB13091, Sigma), rabbit anti-LC3 (1:500; PM036, MBL International Corporation), mouse anti-HSP90β (1:1000; ADI-SPA842, Enzo Life Sciences), rabbit anti-HSP90α (1:1000; ab2928, Abcam), mouse anti-HSP70 (1:500; SPA810, Enzo Life Sciences), rabbit anti-HSP40 (1:1000; #4868, Cell Signaling), rabbit anti-HSP25 (1:1000; ADI-SPA801, Enzo Life Sciences), rabbit anti-HSF1 (1:1000, ADI-SPA-901, Enzo Life Sciences), rabbit anti-ubiquitin (1:1000, Z 0458, Dako), rabbit anti-RAD23A (1:5000; TA307264, Origene), rabbit anti-RAD23B (1:2000; A302-306A, Bethyl Labs), rabbit anti-α-Tubulin (11H10) (1:10000; #2125, Cell Signaling), and mouse anti-GAPDH (1:1000; MAB374, Millipore). Pellets corresponding to insoluble protein fractions were resuspended in 100 μL of Laemmli buffer 2× and boiled for 10 min. Insoluble proteins were then quantified, and 100 μg were loaded in a filter trap assay apparatus and transferred to a nitrocellulose membrane (0.45 μm pore) that was incubated overnight with rabbit anti-MJD antibody (1:5000) at 4° C. Bound primary antibodies were visualized by incubation with a peroxidase-conjugated anti-mouse or anti-rabbit secondary antibody (1:10000; Jackson Immuno Research Laboratories) followed by treatment with the ECL-plus reagent (Western Lighting, PerkinElmer) and exposure to autoradiography films. Band intensity was quantified by densitometry using ImageJ."}, "mouse Atxn3": {"test_system": "mouse Atxn3", "assay": "Organotypic brain slice cultures from YACMJD84.2 (Q84) mice, immunoblotting", "format": "cell-based", "conditions": "sagittal brain slices treated for 48 hours, cerebellum and brainstem", "procedure": "Nine slices per brain were used in each set of cultures. […] After 48 hours of incubation at 37° C./5% CO2, brain slices were assessed for ATXN3 levels by immunoblotting or immunofluorescence and for cell viability. For immunoblotting, each slice was macrodissected into separate cerebellum and brainstem that were immediately frozen at −80° C. in 80 μL and 150 μL of cold RIPA buffer containing protease inhibitors (Complete, Roche Diagnostics), respectively. Cell viability was assessed on treated slices by incubation in propidium iodide (PI) 1 μg/mL in culture medium for 1 hour. Slices were then mounted in PROLONG Gold Antifade Reagent (Invitrogen) and imaged using a FV500 Olympus confocal microscope.\nProtein lysates from cell cultures, mouse brain slices or mouse brains were obtained by lysis in RIPA buffer containing protease inhibitors (Complete, Roche Diagnostics), followed by sonication and centrifugation. The supernatants (soluble protein fractions) were collected, total protein concentration was determined using the BCA method (Pierce) and then stored at −80° C. […] Insoluble proteins were then quantified, and 100 μg were loaded in a filter trap assay apparatus and transferred to a nitrocellulose membrane (0.45 μm pore) that was incubated overnight with rabbit anti-MJD antibody (1:5000) at 4° C. […] Band intensity was quantified by densitometry using ImageJ. […]"}, "[2]": {"test_system": "high molecular weight (HMW) ATXN3 species", "assay": "ATXN3 immunoblotting of protein lysates from fly heads", "format": "in vivo, Drosophila"}, "endogenous mouse Atxn3": {"test_system": "endogenous mouse Atxn3", "assay": "Subchronic treatment of Q84 mice, immunoblot of soluble lysates", "format": "in vivo", "conditions": "15 mg/kg IP daily for 10 days", "procedure": "(§1) YACMJD84.2 transgenic mice were housed in cages with a maximum number of five animals and maintained in a standard 12-hour light/dark cycle with food and water ad libitum. Genotyping was performed using DNA isolated from tail biopsy at the time of weaning, and genotypes of all studied mice were confirmed using DNA extracted from tails collected post-mortem. […] Five hours after the final injection, mice were anesthetized with ketamine/xylazine and perfused transcardially with phosphate buffered saline (PBS) (for RNA and protein studies), and brains were immediately placed on dry ice and stored at −80° C.\n(§2) Protein lysates from cell cultures, mouse brain slices or mouse brains were obtained by lysis in RIPA buffer containing protease inhibitors (Complete, Roche Diagnostics), followed by sonication and centrifugation. The supernatants (soluble protein fractions) were collected, total protein concentration was determined using the BCA method (Pierce) and then stored at −80° C. […] Pellets corresponding to insoluble protein fractions were resuspended in 100 μL of Laemmli buffer 2× and boiled for 10 min. Insoluble proteins were then quantified, and 100 μg were loaded in a filter trap assay apparatus and transferred to a nitrocellulose membrane (0.45 μm pore) that was incubated overnight with rabbit anti-MJD antibody (1:5000) at 4° C. Bound primary antibodies were visualized by incubation with a peroxidase-conjugated anti-mouse or anti-rabbit secondary antibody (1:10000; Jackson Immuno Research Laboratories) followed by treatment with the ECL-plus reagent (Western Lighting, PerkinElmer) and exposure to autoradiography films. Band intensity was quantified by densitometry using ImageJ.\n(§3) Five hours after the final injection on day 10, mice were sacrificed and brains collected for total protein and RNA extraction from different regions: brainstem, cerebellum, cervical spinal cord, and forebrain."}, "human ATXN3": {"test_system": "human ATXN3", "assay": "Subchronic treatment of Q84 mice, immunoblot of soluble lysates", "format": "in vivo", "conditions": "15 mg/kg IP daily for 10 days", "procedure": "as §1, §2, §3"}, "human ATXN3 transcripts": {"test_system": "human ATXN3 transcripts", "assay": "Subchronic treatment of Q84 mice, quantitative RT-PCR", "format": "in vivo", "conditions": "brainstem, 15 mg/kg IP daily for 10 days", "procedure": "as §1\n(§4) Reverse transcription of 1.5 μg of total RNA per sample was performed using the iScript cDNA synthesis kit (Bio-RAD). Human ATXN3 and mouse Atxn3, Drd2, 5HT1A, 5HT2A and Gapdh (housekeeping) transcript levels were accessed by quantitative real-time PCR. Relative gene expression was determined using the ΔΔCT method, normalizing for Gapdh mRNA levels."}, "mouse Atxn3 transcripts": {"test_system": "mouse Atxn3 transcripts", "assay": "Subchronic treatment of Q84 mice, quantitative RT-PCR", "format": "in vivo", "conditions": "brainstem, 15 mg/kg IP daily for 10 days", "procedure": "as §1, §4"}}}
{"smiles": "O=C1CCc2ccc(OCCCCN3CCN(c4cccc(Cl)c4Cl)CC3)cc2N1", "note": "[aripiprazole]", "values": [{"measurement": "levels of ATXN3Q81.Luc fusion protein", "setting": "[1]", "result": "confirmed to decrease levels of ATXN3Q81.Luc fusion protein"}, {"measurement": "levels of mouse Atxn3", "setting": "mouse Atxn3", "result": "reduced levels"}, {"measurement": "HMW ATXN3 species, of levels in vehicle-treated flies", "setting": "[2]; day 12, 50 μM", "result": 0.73}, {"measurement": "HMW ATXN3 species, of levels in vehicle-treated flies", "setting": "[2]; day 15, 50 μM", "result": 0.41}, {"measurement": "HMW ATXN3 species, of levels in vehicle-treated flies", "setting": "[2]; day 19, 50 μM", "result": 0.53}, {"measurement": "levels of endogenous mouse Atxn3", "setting": "endogenous mouse Atxn3", "result": "trend toward decreased levels"}, {"measurement": "HMW ATXN3 species, of levels in vehicle-treated mice", "setting": "human ATXN3; brainstem, Q84 mice", "result": 44, "unit": "%"}, {"measurement": "levels of monomeric human ATXN3", "setting": "human ATXN3; soluble lysates", "result": "trend toward decreased levels"}, {"measurement": "human ATXN3 transcript levels vs vehicle-treated mice", "setting": "human ATXN3 transcripts", "result": "similar"}, {"measurement": "mouse Atxn3 transcript levels vs vehicle-treated mice", "setting": "mouse Atxn3 transcripts", "result": "similar"}]}
